The text below walks through data of patent US9447156B2, “Methods and compositions for inhibiting neddylation of proteins” (St. Jude Children's Research Hospital, priority 2011, dated 2016).

One test has as its target T1, hDcn1^P (Homo sapiens, UniProt Q96GG9).
T1 construct: hDcn1^P corresponds to residues 62 to the C-terminal residue 259 of hDcn1; GST (cleaved yes); made in house; host or cells: E. coli BL21(DE3)Gold
Description: ITC binding of Ubc12/Ube2f peptides to hDcn1^P. To be noted: for ΔH: change in enthalpy; for ΔS: change in entropy. Here is the method:
(§1) Protein samples were buffer matched by desalting over a NAP-5 column (GE Healthcare) into 50 mM Hepes, 125 mM NaCl, 1 mM BME, pH 7.0 (ITC buffer). Peptides were dissolved by weight to a final concentration of 10 mM in ITC buffer and diluted further in ITC buffer as required for the experiments. Measurements were performed using a MicroCal ITC200. hDcn1^P or yDcn1^P were placed into the sample cell at a final concentration of 400 μM at 18° C. The peptide ligands (4 mM) were constantly injected (1.5 μl). The interval time between each injection was 3 minutes and the duration of each injection was 3 seconds. For titrations involving hE1 and yE1, proteins were placed into the sample cell at a final concentration of 25 μM at 22° C. Peptide ligands (250 μM) were constantly injected (2.5 μl). The interval time between each injection was three minutes and the duration of each injection was 5 seconds. For hCul1^ctd-Rbx1:hDcn1^P binding, proteins were buffer matched by desalting over a NAP-5 column in 25 mM Tris, 0.1 M NaCl, 1 mM BME, pH 7.6. hCul1^ctd-Rbx1 was placed into the sample cell at a final concentration of 55 μM at 22° C. hDcn1^P (550 μM) was constantly injected (2.5 μl). The interval time between each injection was 3 minutes and the duration of each injection was 5 seconds. Obtained spectra were evaluated using Origin (V 7.0) to determine heats of binding and Kd values.
The affinity of various peptides for hDcn1^P, hDcn2^P, hDcn3^P, hDcn4^P, and hDcn5^P was tested using isothermal titration calorimetry as described in Example 1 and is provided in Table 29.

Test [1] concerns the target T2, hE1 for Nedd8 (APPBP1-UBA3) (Homo sapiens, UniProt Q8TBC4).
T2 construct: made in house; host or cells: E. coli
T2 sequence (Q8TBC4 22-463 limits assumed): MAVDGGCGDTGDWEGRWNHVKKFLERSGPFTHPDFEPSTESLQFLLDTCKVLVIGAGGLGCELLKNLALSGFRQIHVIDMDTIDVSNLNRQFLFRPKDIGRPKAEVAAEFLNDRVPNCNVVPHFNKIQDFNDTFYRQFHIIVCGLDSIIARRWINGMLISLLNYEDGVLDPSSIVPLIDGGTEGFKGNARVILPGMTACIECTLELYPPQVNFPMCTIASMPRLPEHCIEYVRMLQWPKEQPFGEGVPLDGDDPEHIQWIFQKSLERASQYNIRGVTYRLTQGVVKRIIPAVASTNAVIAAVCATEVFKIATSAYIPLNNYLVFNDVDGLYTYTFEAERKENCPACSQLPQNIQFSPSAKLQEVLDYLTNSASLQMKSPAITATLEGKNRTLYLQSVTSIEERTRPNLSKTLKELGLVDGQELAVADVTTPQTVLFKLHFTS
T2 sequence (Q13564 1-534 partner): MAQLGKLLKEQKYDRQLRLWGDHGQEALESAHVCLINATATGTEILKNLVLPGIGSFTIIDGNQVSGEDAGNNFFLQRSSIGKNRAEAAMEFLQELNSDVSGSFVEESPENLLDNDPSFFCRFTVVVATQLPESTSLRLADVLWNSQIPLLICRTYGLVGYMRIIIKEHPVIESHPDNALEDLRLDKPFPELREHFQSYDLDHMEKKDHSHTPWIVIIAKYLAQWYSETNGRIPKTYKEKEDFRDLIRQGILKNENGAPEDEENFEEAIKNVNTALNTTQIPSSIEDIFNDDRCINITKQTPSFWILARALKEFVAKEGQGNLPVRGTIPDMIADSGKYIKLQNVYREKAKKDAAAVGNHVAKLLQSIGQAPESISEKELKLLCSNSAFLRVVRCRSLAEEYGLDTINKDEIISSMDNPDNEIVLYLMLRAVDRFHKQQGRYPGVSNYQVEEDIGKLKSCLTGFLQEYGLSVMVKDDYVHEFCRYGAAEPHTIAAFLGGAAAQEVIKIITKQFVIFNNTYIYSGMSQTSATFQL
Description: ITC binding of Ubc12 peptides to hE1. The following applies: for Kd / ΔH / ΔS: ITC; for Kd: protein hE1, titrant Ubc12 peptide; for ΔH / ΔS: protein hE1; for ΔH: change in enthalpy; for ΔS: change in entropy. As to the method:
as §1

The next test deals with T3, yDcn1^P (Saccharomyces cerevisiae, UniProt Q12395).
T3 construct: made in house; host or cells: E. coli
T3 sequence (Q12395 70-269): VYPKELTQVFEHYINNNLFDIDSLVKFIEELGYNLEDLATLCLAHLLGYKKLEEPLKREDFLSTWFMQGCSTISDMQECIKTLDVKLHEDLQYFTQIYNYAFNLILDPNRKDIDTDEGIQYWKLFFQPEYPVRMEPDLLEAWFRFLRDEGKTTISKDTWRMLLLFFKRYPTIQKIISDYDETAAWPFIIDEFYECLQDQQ
As to the kind of experiment: ITC binding of Ubc12 peptides to yDcn1^P. Also on record: species or system S. cerevisiae. The following applies: ITC, protein yDcn1^P. As to the method:
as §1, with “Measurements were performed using a MicroCal ITC200. hDcn1^P or yDcn1^P were placed into the sample cell at a final concentration of 400 μM at 18° C.” left out, “[…])” for “hDcn1^P (550 μM)”, “seconds.” for “seconds. Obtained spectra were evaluated using Origin (V 7.0) to determine heats of binding and Kd values.”

Where [2] appears, read: Table 29, peptides with amidated carboxy-terminus, read-out: Binding Kd for hDcn1^P.
[3] abbreviates: protein hDcn1^P, titrant Ubc12 peptide, read-out: Kd.

Like-named read-outs stand apart in the source and are kept apart here. Positions of bridges follow the written chain, without caps; N, C: chain ends. Non-standard residues stand in square brackets, D forms with d. Residues, ends and D or L forms follow the SMILES beside them. No end group written: not given here. *: point of attachment. S5 = C=CCCC[C@](C)(N)C(=O)O; For = O=C* A value given as a limit tells only on which side of the number the result lay.

T1 sequence (Q96GG9 62-259): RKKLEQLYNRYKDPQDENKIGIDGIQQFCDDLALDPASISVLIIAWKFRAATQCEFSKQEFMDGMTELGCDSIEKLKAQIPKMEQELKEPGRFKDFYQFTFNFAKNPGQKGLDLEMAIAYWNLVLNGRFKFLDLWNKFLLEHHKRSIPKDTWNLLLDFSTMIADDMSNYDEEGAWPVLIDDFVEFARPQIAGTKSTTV

For the compound “Ac-MIKLFSLKQQKKEEESAGGTKGSSKK-NH2 [Acetyl-hUbc12^1-26]”, at hDcn1^P (protein hDcn1^P), the ΔH was −6,107 cal/mol and the ΔS worked out at 5.84 cal/mol/deg. Further, in test [1], binding was put at a Kd of 943 nM, the ΔH was −9,425 cal/mol and the ΔS is −4.79 cal/mol/deg.
On to `CCCC[C@H](N)C(=O)N[C@H](C(=O)N[C@@H](CCCCN)C(=O)N[C@@H](CC(C)C)C(=O)N[C@@H](Cc1ccccc1)C(=O)N[C@@H](CO)C(=O)N[C@@H](CC(C)C)C(=O)N[C@@H](CCCCN)C(=O)N[C@@H](CCC(N)=O)C(=O)N[C@@H](CCC(N)=O)C(=O)N[C@@H](CCCCN)C(=O)N[C@@H](CCCCN)C(N)=O)[C@@H](C)CC` [hUbc12^1−12 (NorLeu)], for which, on hDcn1^P (setting [2]), the Kd – broadly, a measure of binding affinity in units of concentration – is more than 400000 nM.
Consider “MIKLFSLKQQKKEEESAGGTKGSSKK-NH2 [hUbc12^1−26]”, for which the Kd at hDcn1^P (setting [2]) is more than 200000 nM.
For `CC[C@H](C)[C@H](NC(=O)[C@H](CO)NC(=O)[C@H](CO)NC(=O)[C@H](CO)NC(=O)[C@H](CC(N)=O)NC(=O)[C@H](CCC(=O)O)NC(=O)[C@H](CC(N)=O)NC(=O)[C@H](CCC(=O)O)NC(=O)[C@H](CCCCN)NC(=O)[C@H](CCC(N)=O)NC(=O)[C@H](CCCCN)NC(=O)[C@H](CCCCN)NC(=O)[C@H](CCCCN)NC(=O)[C@H](CCC(N)=O)NC(=O)[C@H](CC(C)C)NC(=O)[C@H](CCC(N)=O)NC(=O)[C@H](CCCNC(=N)N)NC(=O)[C@H](CC(C)C)NC(=O)[C@H](CCCCN)NC(=O)[C@H](CC(C)C)NC(=O)[C@H](CCSC)NC=O)C(=O)N[C@@H](CCC(N)=O)C(=O)N1CCC[C@H]1C(=O)N[C@@H](CC(N)=O)C(N)=O` [Formyl-yUbc12^1-24] (For-MLKLRQLQKKKQKENENSSSIQPN-NH2), at yDcn1^P (change in enthalpy), the ΔH is on record as 2,824 cal/mol. The compound also showed a ΔS on yDcn1^P (change in entropy) of 33.4 cal/mol/deg.
Consider “AcetylhUbc12^Ac1-12(5,9 Staple): Acetylated hUbc12 1-12 with Phe5 and Gln9 replaced with (S)-2-(4'-pentenyl)alanine, side-chains covalently linked (Ac-MIKL[S5]SLK[S5]QKK-NH2; staple 5-9)”, for which, in test [1] (data not shown), the “binding to E1” value is on record as “no longer binds E1”.
As to “Ac-IKLFSLKQQKKEEESAGGTKGSSKK-NH2 [Acetyl-hUbc12^2-26]”, on hDcn1^P (protein hDcn1^P), the ΔH was 1,719 cal/mol and the ΔS is 24.1 cal/mol/deg. For the same compound, at hDcn1^P (setting [3]), the Kd was more than 100000 nM. In test [1], binding was characterised by a dissociation constant (Kd) of 390 nM, the ΔH was −8,899 cal/mol and the ΔS is −1.24 cal/mol/deg.
Take “Ac-IKLFSLKQQKKEEESAGGTKGSSKK-NH2 [hUbc12^Ac−2−26]”: on hDcn1^P (setting [2]), the Kd was more than 150000 nM.
`CC[C@H](C)[C@H](NC(=O)[C@H](CCSC)NC(C)=O)C(=O)N[C@@H](CCCCN)C(=O)N[C@@H](CC(C)C)C(=O)N[C@@]1(C)CCCC=CCCC[C@@](C)(C(=O)N[C@@H](CCC(N)=O)C(=O)N[C@@H](CCCCN)C(=O)N[C@@H](CCCCN)C(N)=O)NC(=O)[C@H](CCCCN)NC(=O)[C@H](CC(C)C)NC(=O)[C@H](CO)NC1=O` [Acetyl-hUbc12^1-12 (5:9Staple)] (Ac-MIKL[S5]SLK[S5]QKK-NH2; staple 5-9): on hDcn1^P (protein hDcn1^P), the ΔH is −3,386 cal/mol and the ΔS worked out at 19.3 cal/mol/deg.
With `CC[C@H](C)[C@H](NC(=O)[C@H](CCSC)NC(C)=O)C(=O)N[C@@H](CCCCN)C(=O)N[C@@H](CC(C)C)C(=O)N[C@@H](Cc1ccccc1)C(=O)N[C@@H](CO)C(=O)N[C@@H](CC(C)C)C(=O)N[C@@H](CCCCN)C(=O)N[C@@H](CCC(N)=O)C(=O)N[C@@H](CCC(N)=O)C(=O)N[C@@H](CCCCN)C(=O)N[C@@H](CCCCN)C(N)=O` [Acetyl-hUbc12^1-12], at hDcn1^P (protein hDcn1^P), the ΔH was −4,992 cal/mol and the ΔS was determined as 8.79 cal/mol/deg. In addition, in test [1], the dissociation constant Kd turned out to be 630 nM, the ΔH is −11,490 cal/mol and the ΔS is −11.0 cal/mol/deg.
For `CC[C@H](C)[C@H](NC(=O)[C@H](CCSC)NC=O)C(=O)N[C@@H](CCCCN)C(=O)N[C@@H](CC(C)C)C(=O)N[C@@H](Cc1ccccc1)C(=O)N[C@@H](CO)C(=O)N[C@@H](CC(C)C)C(=O)N[C@@H](CCCCN)C(=O)N[C@@H](CCC(N)=O)C(=O)N[C@@H](CCC(N)=O)C(=O)N[C@@H](CCCCN)C(=O)N[C@@H](CCCCN)C(=O)N[C@@H](CCC(=O)O)C(=O)N[C@@H](CCC(=O)O)C(=O)N[C@@H](CCC(=O)O)C(=O)N[C@@H](CO)C(=O)N[C@@H](C)C(=O)NCC(=O)NCC(=O)N[C@H](C(=O)N[C@@H](CCCCN)C(=O)NCC(=O)N[C@@H](CO)C(=O)N[C@@H](CO)C(=O)N[C@@H](CCCCN)C(=O)N[C@@H](CCCCN)C(N)=O)[C@@H](C)O` [Formyl-hUbcU^126] (For-MIKLFSLKQQKKEEESAGGTKGSSKK-NH2), at hDcn1^P (protein hDcn1^P), the ΔH is listed as −4,893 cal/mol and the ΔS turned out to be 5.79 cal/mol/deg.
For the compound “H-MIKLFSLKQQKKEEESAGGTKGSSKK-NH2 [hUbc12^1-26]”, at hDcn1^P (protein hDcn1^P), the ΔH is listed as 1,259 cal/mol and the ΔS amounted to 22.2 cal/mol/deg. The Kd on hDcn1^P (setting [3]) was more than 130000 nM. Also, in test [1], the Kd came out at 585 nM, the ΔH is on record as −8,881 cal/mol and the ΔS is −1.99 cal/mol/deg.
